One block for each compound: values may come before it. Activity calls are given as the source filed them. The rule behind the calls is not given here.
Assays:
[1] = biological target: T1, Amyloid-beta precursor protein (Homo sapiens, UniProt P05067); test: Displacement of [125I-N-Methyl-4-(4-bromoanilino)phthalimide from beta-amyloid plaques isolated from Alzheimer's disease patient brain
[2] = Binding affinity to beta-amyloid plaques
Blood [3] = test: Biodistribution in Kunming mouse blood at 2 uCi, iv after 10 mins; assay type: ADME, organism-based; settings: in vivo
Liver [4] = test: Biodistribution in Kunming mouse liver at 2 uCi, iv after 30 mins; assay type: ADME, organism-based; settings: in vivo, 0.5 h
Brain [5] = test: Biodistribution in Kunming mouse brain at 2 uCi, iv after 10 mins; assay type: ADME, organism-based; settings: in vivo
Spleen [6] = test: Biodistribution in Kunming mouse spleen at 2 uCi, iv after 10 mins; assay type: ADME, organism-based; settings: in vivo
Spleen [7] = test: Biodistribution in Kunming mouse spleen at 2 uCi, iv after 2 mins; assay type: ADME, organism-based; settings: in vivo
Blood [8] = test: Biodistribution in Kunming mouse blood at 2 uCi, iv after 2 mins; assay type: ADME, organism-based; settings: in vivo
Heart [9] = test: Biodistribution in Kunming mouse heart at 2 uCi, iv after 30 mins; assay type: ADME, organism-based; settings: in vivo, 0.5 h
Blood [10] = test: Biodistribution in Kunming mouse blood at 2 uCi, iv after 30 mins; assay type: ADME, organism-based; settings: in vivo, 0.5 h
[11] = Partition coefficient, log P at pH 7.4 phosphate buffer; assay type: physicochemical
Liver [12] = test: Biodistribution in Kunming mouse liver at 2 uCi, iv after 10 mins; assay type: ADME, organism-based; settings: in vivo
Lung [13] = test: Biodistribution in Kunming mouse lung at 2 uCi, iv after 2 mins; assay type: ADME, organism-based; settings: in vivo
Kidney [14] = test: Biodistribution in Kunming mouse kidney at 2 uCi, iv after 60 mins; assay type: ADME, organism-based; settings: in vivo, 1 h
Liver [15] = test: Biodistribution in Kunming mouse liver at 2 uCi, iv after 60 mins; assay type: ADME, organism-based; settings: in vivo, 1 h
Heart [16] = test: Biodistribution in Kunming mouse heart at 2 uCi, iv after 2 mins; assay type: ADME, organism-based; settings: in vivo
Heart [17] = test: Biodistribution in Kunming mouse heart at 2 uCi, iv after 60 mins; assay type: ADME, organism-based; settings: in vivo, 1 h
Lung [18] = test: Biodistribution in Kunming mouse lung at 2 uCi, iv after 10 mins; assay type: ADME, organism-based; settings: in vivo
Kidney [19] = test: Biodistribution in Kunming mouse kidney at 2 uCi, iv after 10 mins; assay type: ADME, organism-based; settings: in vivo
Liver [20] = test: Biodistribution in Kunming mouse liver at 2 uCi, iv after 2 mins; assay type: ADME, organism-based; settings: in vivo
Spleen [21] = test: Biodistribution in Kunming mouse spleen at 2 uCi, iv after 60 mins; assay type: ADME, organism-based; settings: in vivo, 1 h
Brain [22] = test: Biodistribution in Kunming mouse brain at 2 uCi, iv after 2 mins; assay type: ADME, organism-based; settings: in vivo
Lung [23] = test: Biodistribution in Kunming mouse lung at 2 uCi, iv after 30 mins; assay type: ADME, organism-based; settings: in vivo, 0.5 h
Blood [24] = test: Biodistribution in Kunming mouse blood at 2 uCi, iv after 60 mins; assay type: ADME, organism-based; settings: in vivo, 1 h
Kidney [25] = test: Biodistribution in Kunming mouse kidney at 2 uCi, iv after 2 mins; assay type: ADME, organism-based; settings: in vivo
Heart [26] = test: Biodistribution in Kunming mouse heart at 2 uCi, iv after 10 mins; assay type: ADME, organism-based; settings: in vivo
Lung [27] = test: Biodistribution in Kunming mouse lung at 2 uCi, iv after 60 mins; assay type: ADME, organism-based; settings: in vivo, 1 h
Spleen [28] = test: Biodistribution in Kunming mouse spleen at 2 uCi, iv after 30 mins; assay type: ADME, organism-based; settings: in vivo, 0.5 h
Brain [29] = test: Biodistribution in Kunming mouse brain at 2 uCi, iv after 60 mins; assay type: ADME, organism-based; settings: in vivo, 1 h
Kidney [30] = test: Biodistribution in Kunming mouse kidney at 2 uCi, iv after 30 mins; assay type: ADME, organism-based; settings: in vivo, 0.5 h
Brain [31] = test: Biodistribution in Kunming mouse brain at 2 uCi, iv after 30 mins; assay type: ADME, organism-based; settings: in vivo, 0.5 h
[32] = biological target: T1, Amyloid-beta precursor protein; test: Binding affinity to beta-amyloid plaques isolated from Alzheimer's disease patient brain at 50 uM by fluorescence micrography

T1 sequence (P05067 whole entry): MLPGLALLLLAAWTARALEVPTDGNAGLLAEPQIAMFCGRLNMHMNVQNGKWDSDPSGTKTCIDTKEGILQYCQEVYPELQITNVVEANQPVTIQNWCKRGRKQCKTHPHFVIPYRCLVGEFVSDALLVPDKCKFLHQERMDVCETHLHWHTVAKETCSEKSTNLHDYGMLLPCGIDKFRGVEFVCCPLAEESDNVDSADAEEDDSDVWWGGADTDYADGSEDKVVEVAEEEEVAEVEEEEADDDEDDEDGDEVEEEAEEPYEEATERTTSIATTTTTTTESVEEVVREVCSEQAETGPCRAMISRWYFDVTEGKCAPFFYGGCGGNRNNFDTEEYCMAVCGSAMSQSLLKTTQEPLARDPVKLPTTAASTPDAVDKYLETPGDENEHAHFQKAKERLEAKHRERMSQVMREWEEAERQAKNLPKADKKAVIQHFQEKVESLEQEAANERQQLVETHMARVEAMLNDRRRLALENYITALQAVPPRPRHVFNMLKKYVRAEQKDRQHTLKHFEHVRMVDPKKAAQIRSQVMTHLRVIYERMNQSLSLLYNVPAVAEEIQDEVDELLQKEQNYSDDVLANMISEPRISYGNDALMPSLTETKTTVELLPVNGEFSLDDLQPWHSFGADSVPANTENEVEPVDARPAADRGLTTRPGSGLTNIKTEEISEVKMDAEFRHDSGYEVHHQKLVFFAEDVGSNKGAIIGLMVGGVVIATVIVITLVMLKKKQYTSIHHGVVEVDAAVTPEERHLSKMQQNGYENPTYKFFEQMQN

Structure (SMILES): COc1ccc2cc([C@H](C)C(=O)O)ccc2c1 [NAPROXEN]
Ki [2]: 5.7 nM

Structure (SMILES): O=C1NC(=O)c2cc(Nc3ccccc3)c(Nc3ccccc3)cc21 [DAPH]
Ki [1]: > 1000 nM

Structure (SMILES): CC(=C(C#N)C#N)c1ccc2cc(N(C)CC[18F])ccc2c1
Ki [2]: 2.7 nM

Structure (SMILES): Nc1c(/N=N/c2ccc(-c3ccc(/N=N/c4cc(S(=O)(=O)O)c5ccccc5c4N)cc3)cc2)cc(S(=O)(=O)O)c2ccccc12 [CONGO RED]
Ki [1]: > 1000 nM

Structure (SMILES): [11CH3]Nc1ccc(-c2nc3ccc(O)cc3s2)cc1 [PITTSBURGH COMPOUND B]
Ki [2]: 4.3 nM

Now from value to compound:

Ki [1]: > 1000 nM
Structure (SMILES): CN1C(=O)c2cc(Nc3ccccc3)c(Nc3ccccc3)cc2C1=O

Drug uptake (Blood [3]): 2.74 % ID/g
Drug uptake (Liver [4]): 5.84 % ID/g
Drug uptake (Brain [5]): 3.41 % ID/g
Drug uptake (Spleen [6]): 6.87 % ID/g
Drug uptake (Spleen [7]): 5.64 % ID/g
Drug uptake (Blood [8]): 2.47 % ID/g
Drug uptake (Heart [9]): 2.83 % ID/g
Drug uptake (Blood [10]): 2.69 % ID/g
logD [11]: 2.16
Drug uptake (Liver [12]): 14.38 % ID/g
Drug uptake (Lung [13]): 6.77 % ID/g
Drug uptake (Kidney [14]): 2.68 % ID/g
Drug uptake (Liver [15]): 3.37 % ID/g
Drug uptake (Heart [16]): 7.4 % ID/g
Drug uptake (Heart [17]): 2.24 % ID/g
Drug uptake (Lung [18]): 6.35 % ID/g
Drug uptake (Kidney [19]): 6.55 % ID/g
Drug uptake (Liver [20]): 11.98 % ID/g
Drug uptake (Spleen [21]): 2.92 % ID/g
Kd [1]: 0.21 nM
Drug uptake (Brain [22]): 5.16 % ID/g
Drug uptake (Lung [23]): 3.47 % ID/g
Drug uptake (Blood [24]): 2.78 % ID/g
Drug uptake (Kidney [25]): 9.81 % ID/g
Drug uptake (Heart [26]): 3.41 % ID/g
Drug uptake (Lung [27]): 2.82 % ID/g
Drug uptake (Spleen [28]): 3.7 % ID/g
Drug uptake (Brain [29]): 0.59 % ID/g
Drug uptake (Kidney [30]): 3.59 % ID/g
Drug uptake (Brain [31]): 1.16 % ID/g
Structure (SMILES): CN1C(=O)c2ccc(Nc3ccc([125I])cc3)cc2C1=O

Ki [1]: 7.6 nM
Structure (SMILES): CN1C(=O)c2ccc(Nc3ccccc3)cc2C1=O

Ki [1]: 19.7 nM
Structure (SMILES): CN1C(=O)c2ccc(Nc3ccc(O)cc3)cc2C1=O

Ki [1]: 4.1 nM
Activity [32]: Active
Structure (SMILES): Cc1ccc(Nc2ccc3c(c2)C(=O)N(C)C3=O)cc1

Ki [1]: 0.9 nM
Activity [32]: Active
Structure (SMILES): CN1C(=O)c2ccc(Nc3ccc(I)cc3)cc2C1=O

Ki [1]: 16.3 nM
Structure (SMILES): COc1ccc(Nc2ccc3c(c2)C(=O)N(C)C3=O)cc1

Ki [1]: 3.8 nM
Activity [32]: Active
Structure (SMILES): CN1C(=O)c2ccc(Nc3ccc(Br)cc3)cc2C1=O
